Drawing on BindingDB's records for doi:10.1016/s0960-894x(98)00237-6 (Fujisawa Pharmaceutical, 1999), this text covers IC50 for three compounds.

Assay [1] can be described thus: Compound was evaluated for the inhibition of […] I-CCK-8 binding at Cholecystokinin type B receptor on guinea pig cerebral cortical membranes.
Assay [2] can be described thus: Compound was evaluated for the inhibition of […] I-CCK-8 binding at CCK-B receptor Cholecystokinin type B receptor cerebral cortical membranes.

For orientation: IC50 means the point on the concentration scale where inhibition reaches its midpoint. `O=C(Nc1cccc(-c2nnn[nH]2)c1)NC1N=C(c2ccccc2F)c2ccccc2N(CC(=O)N2CC3CCC(CC3)C2)C1=O` (stereo not drawn) [1-[1-[2-(3-Aza-bicyclo[3.2.2]non-3-yl)-2-oxo-ethyl]-5-(2-fluoro-phenyl)-2-oxo-2,3-dihydro-1H-benzo[e][1,4]diazepin-3-yl]-3-[3-(1H-tetrazol-5-yl)-phenyl]-urea] came in with a half-maximal inhibitory concentration (IC50) in assay [1] of 0.087 nM. `O=C(Nc1cccc(-c2nnn[nH]2)c1)NC1N=C(c2ccccc2F)c2cccc(Cl)c2N(CC(=O)N2CC3CCC(CC3)C2)C1=O` (stereo not drawn) [1-[1-[2-(3-Aza-bicyclo[3.2.2]non-3-yl)-2-oxo-ethyl]-9-chloro-5-(2-fluoro-phenyl)-2-oxo-2,3-dihydro-1H-benzo[e][1,4]diazepin-3-yl]-3-[3-(1H-tetrazol-5-yl)-phenyl]-urea] returned an IC50 in assay [2] of 0.66 nM.

For `CCc1cccc2c1N(CC(=O)N1CC3CCC(CC3)C1)C(=O)C(NC(=O)Nc1cccc(-c3nnn[nH]3)c1)N=C2c1ccccc1F` (stereo not drawn) [1-[1-[2-(3-Aza-bicyclo[3.2.2]non-3-yl)-2-oxo-ethyl]-9-ethyl-5-(2-fluoro-phenyl)-2-oxo-2,3-dihydro-1H-benzo[e][1,4]diazepin-3-yl]-3-[3-(1H-tetrazol-5-yl)-phenyl]-urea], the IC50 in assay [1] is 0.81 nM.
